One compound from US6516294B1, “Nuclear receptor for 1α,25-dihydroxyvitamin D3 useful for selection of vitamin D3 ligands and a method therefor” (The Regents of the University of California, priority 1999, dated 2003) can be followed below.

The structures appear in SMILES notation.

The target of one assay is T1, VDR (Homo sapiens, UniProt P11473).
T1 sequence (P11473 1-427): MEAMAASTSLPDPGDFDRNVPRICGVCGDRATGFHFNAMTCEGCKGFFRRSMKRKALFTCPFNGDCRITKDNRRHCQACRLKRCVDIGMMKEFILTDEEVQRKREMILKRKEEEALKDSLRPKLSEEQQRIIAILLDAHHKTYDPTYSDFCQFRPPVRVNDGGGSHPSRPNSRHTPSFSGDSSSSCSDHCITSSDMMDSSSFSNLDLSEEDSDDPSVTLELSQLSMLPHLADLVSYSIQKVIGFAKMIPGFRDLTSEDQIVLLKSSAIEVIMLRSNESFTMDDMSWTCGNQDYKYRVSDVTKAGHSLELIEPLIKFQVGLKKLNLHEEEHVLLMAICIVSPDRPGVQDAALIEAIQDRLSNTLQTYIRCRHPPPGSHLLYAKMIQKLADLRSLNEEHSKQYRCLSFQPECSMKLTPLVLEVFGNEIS
Nature of the assay: Binding to the VDR relative to 1α,25(OH)2D3. Conditions: 1α,25(OH)2D3 as reference. The text has this:
(§1) One striking ligand-receptor structure-function relationship for 1α,25(OH)2D3 analogs relates to the chiral center at carbon 20 (see FIG. 7A) of the steroid side chain. The 20-epi analogs are 100-10,000 times more transcriptionally potent than the natural hormone 1α,25(OH)2D3, even though their affinity for the VDR is not greater. It is also known that the side chain of 20-normal versus 20-epi analogs of 1α,25(OH)2D3 is able to access different regions of three-dimensional space around the C/D ring. […] Med. Chem. Lett., 3:1799 (1998).
(§2) The problem of docking in the VDR LBD a unique analog of 1α,25(OH)2D3 that has a second side chain attached to carbon 20, such as Gemini [21-(3′-hydroxy-3-methylbutyl)-1α,25(OH)2D3], was also evaluated. Thus, Gemini has both a 20-normal and a 20-epi side chain. […] This conclusion is also consistent both with the proposal that the ligand enters the VDR LBD leading with its A-ring and with the unique trypsin sensitivity of a VDR LBD-Gemini complex.

Another assay concerns osteocalcin promoter. Briefly: Transactivation of the osteocalcin promoter. The format is cell-based. Conditions: more potent than 1α,25(OH)2D3.
Excerpt: as §1
The seemingly benign structural change of the ligand from a 20-normal to 20-epi 1α,25(OH)2D3 results in a new conformational change in the VDR as assessed by trypsin sensitivity. This conformational change is believed to reflect an altered orientation of helix 12. Thus a VDR with a 20-epi ligand has an enhanced dimerization with RXR, resulting in increased transactivation of the osteocalcin promoter.
as §2

As for `C=C1/C(=C\C=C2/CCC[C@]3(C)[C@@H](C(CCCC(C)(C)O)CCCC(C)(C)O)CC[C@@H]23)C[C@H](O)C[C@H]1O` [Gemini, 21-(3′-hydroxy-3-methylbutyl)-1α,25(OH)2D3], on VDR, the “binding to the VDR relative to 1α,25(OH)2D3” value turned out to be 40%. Moreover, the “potency relative to 1α,25(OH)2D3, transactivation of the osteocalcin promoter” value in the assay on osteocalcin promoter is listed as 13 -fold.
